In patent US8258182B2, “Substituted 1,3-diphenylpropane derivatives, preparations and uses thereof” (Genfit, priority 2006, dated 2012):

What was measured:
ApoE2/E2 mice = test: Plasma lipids in dyslipidemic ApoE2/E2 mice after per os treatment; assay type: in vivo, mouse; settings: 50 mpk per os, 8 days
Experimental: The dyslipidemic E2/E2 mouse's rates of total cholesterol, of triglycerides, and plasma free fatty acids are measured after 8 or 14 days of a per os treatment with the compounds according to the invention.
The hypolipidemic properties of the compounds according to the invention are evaluated in vivo by assaying plasma lipids and the analysis of the PPARs target genes expression in the liver after a treatment treating of the dyslipidemic E2/E2 mice with the compounds according to the invention.
The murine model used is the ApoE2/E2 mouse, a transgenic mouse having the human apolipoprotein E isoform E2 (Sullivan P M et al., 1998). In human, this apolipoprotein, a constituent of low and very low density lipoproteins (LDL-VLDL), is present in three isoforms E2, E3, and E4. The E2 form presents a mutation affecting the amino acid in position 158, which considerably weakens the affinity of this protein for LDL receptors. Accordingly, the VLDL clearance is nearly non-existent. An accumulation of low-density lipoproteins then occurs along with a mixed hyperlipidemia known as type III (elevated cholesterol and triglycerides).
The ApoE2/E2 transgenic mice were kept on a 12 hour/12 hour light/dark cycle at a constant temperature of 20±3° C. After a one week acclimatization period, the mice were weighed and divided into groups of 6 animals selected so as to render uniform the distribution of their body weights and plasma lipid rates, determined before the experiment. The tested compounds were suspended in carboxymethylcellulose (Sigma C4888) and administered by intra-gastric tube feeding once a day for 8 days (for compound 1) or 14 days (for compound 8) with the chosen doses. […] Taking of food and weight gain are recorded throughout the experiment. […]
Plasma lipid concentrations (total cholesterol and triglycerides) are measured by enzymatic doses (bioMérieux-Lyon-France) according to the provider's recommendations.
Plasma cholesterol and triglycerides rates are measured after 8 or 14 days of a per os treatment with the compounds according to the invention. […]

[1] = tested on: PPARs target genes (PDK4, ApoCIII, ACO) in the hepatic tissue; test: Hepatic expression of PPAR target genes in E2/E2 mice (quantitative RT-PCR); assay type: in vivo, mouse; settings: 50 mpk
Experimental: The effectiveness of the compounds according to the invention is also evaluated by measuring, in the hepatic tissue, the expression of genes involved in lipid and/or glucids metabolism and in energy dissipation. Each level of genes expression is normalised regarding the expression level of the reference gene 36B4's. The induction factor, i.e. the ratio between the relative signal (induced by the compound according to the invention) and the average of the relative values relating to the control group is then calculated. The higher the induction factor is, the more the compound promotes hepatic gene expression. The final result is expressed as an average of the induction values obtained with each experimental group.
The PPARα agonist properties previously measured in vitro should, in the liver, lead to an overexpression of the target genes directly under the control of the PPARα: the genes we have studied in this experiment are PDK-4 (an enzyme involved in glucid metabolism), Apo CIII (an apolipoprotein involved in lipid metabolism), and Acox1 (in mice, Acox1 corresponds to the ACO gene in humans (Acyl Co-enzymeA Oxydase, an enzyme key to the fatty acid β-oxidation mechanism)). Measuring the transcriptional activity of PPARα target genes after a treatment with compounds according to the invention does therefore allow to evaluate the hypolipidemic properties of the compounds according to the invention.
The ApoE2/E2 transgenic mice were kept on a 12 hour/12 hour light/dark cycle at a constant temperature of 20±3° C. After a one week acclimatization period, the mice were weighed and divided into groups of 6 animals selected so as to render uniform the distribution of their body weights and plasma lipid rates, determined before the experiment. The tested compounds were suspended in carboxymethylcellulose (Sigma C4888) and administered by intra-gastric tube feeding once a day for 8 days (for compound 1) or 14 days (for compound 8) with the chosen doses. The animals had free access to food and water (standard diet). Taking of food and weight gain are recorded throughout the experiment. At the end of the experiment, the animals were anesthetized after a 4 hour fast, and a blood sample was taken using (EDTA) anticoagulant, then the mice were weighed and euthanized. The plasma was separated by centrifugation at 3000 rotations/minute for 20 minutes. The samples were kept at +4° C.
Liver samples were removed, frozen in liquid nitrogen, and kept at −80° C. for later analyses.
Total RNA is extracted from liver fragments by using the NucleoSpin® 96 RNA kit (Macherey Nagel, Hoerdt, France) according to the manufacturer's instructions.
1 μg of total RNA (quantified by using the Ribogreen RNA quantification kit (Molecular Probes)) is then reverse-transcripted into complementary DNA by means of a 1 hour reaction at 37° C. in a total volume of 20 μl containing a 1× buffer (Sigma), 1.5 mM of DTT, 0.18 mM of dNTPs (Promega), 200 ng of pdN6 (Amersham), 30U of RNase inhibitor (Sigma), and 1 μl of MMLV-RT (Sigma).
The PCR quantitative experiments were carried out using the MyiQ Single-Color Real-Time PCR Detection System (Biorad, Marnes-la-Coquette, France) and were performed using the iQ SYBR Green Supermix kit according to the manufacturer's recommendations, in 96-well trays in 5 μl of a diluted reverse transcription solution at a hybridation temperature of 55° C. The specific primer pairs of the genes studied were used: • PDK4: sense primer: 5′-[…]-3′ (SEQ ID NO: 1) and antisense primer 5′-[…]-3′ (SEQ ID NO: 2)) • ApoCIII: sense primer: 5′-[…]-3′ (SEQ ID NO: 3) and antisense primer 5′-[…]-3′ (SEQ ID NO: 4). • ACO: sense primer: 5′-[…]-3′ (SEQ ID NO: 5) and antisense primer: 5′-[…]-3′ (SEQ ID NO: 6)
The quantity of fluorescencet emitted is directly proportional to the quantity of cDNA present at the beginning of the reaction and amplified during the PCR. […]

CSc1ccc(C(=O)CCc2cc(C)c(OC(C)(C)C(=O)O)c(C)c2)cc1 [Compound 1, 2-[2,6-dimethyl-4-[3-[4-(methylthio)phenyl]-3-oxo-propyl]phenoxyl]-2-methylpropanoic acid]
plasma total cholesterol rates (ApoE2/E2 mice; vs control animals (FIG. 2-1)): very significantly decreased
circulating triglycerides rates (ApoE2/E2 mice; vs control animals (FIG. 2-2)): very significantly decreased
hepatic expression of the gene coding for PDK4 ([1]; 8 days (FIG. 2-4)): significant increase
hepatic expression of the gene coding for ApoCIII ([1]; 8 days (FIG. 2-5)): reduction
hepatic expression of genes coding for ACO ([1]; 8 days (FIG. 2-6)): significant augmentation
